Reference: patent publication US20250387405A1 (priority 2021, published 2025)
Read-outs that look alike come from different tables or passages of the source.

Experiments:
[1] = type: physicochemical; settings: for crystal structure: light stability test; for Content of CBT/% / Content of OXA/%: light
[2] = Equilibrium solubility in water by HPLC; settings: for equilibrium solubility in water (25° C.): HPLC
[3] = type: physicochemical; settings: for Content of CBT/% / Content of OXA/%: 60° C.; for crystal structure: high temperature (60° C.) test
[4] = tested on: Human MH7A synovial cells; experiment: Proliferation of MH7A cells; type: cell-based
Procedure: Human MH7A synovial cells were cultured in vitro and measured by quantifying the number of cells 48 h after treatment Proliferation.

[5] = tested on: Human fibroblast-like synovial cell rheumatoid arthritis (HFLS-RA) cells; experiment: Proliferation of HFLS-RA cells; type: cell-based
Procedure: Human fibroblast-like synovial cell rheumatoid arthritis (HFLS-RA) cells were cultured in vitro and their proliferation was measured by quantifying the number of cells 48 h after treatment.

[6] = 48 h after treatment, 1.563-100 μg/mL

Structure (SMILES)	crystal structure [1]	Content of CBT/% ([1]; Day 0) [%]	Content of CBT/% ([1]; Day 1) [%]	Content of CBT/% ([1]; Day 3) [%]	Content of CBT/% ([1]; Day 5) [%]	Content of CBT/% ([1]; Day 10) [%]	Content of CBT/% ([1]; Day 15) [%]	crystal structure [3]	Content of OXA/% ([1]; Day 0) [%]	Content of OXA/% ([1]; Day 1) [%]	Content of OXA/% ([1]; Day 3) [%]	Content of OXA/% ([1]; Day 5) [%]	Content of OXA/% ([1]; Day 10) [%]	Content of OXA/% ([1]; Day 15) [%]	Content of OXA/% ([3]; Day 0) [%]	Content of OXA/% ([3]; Day 1) [%]	Content of OXA/% ([3]; Day 3) [%]	Content of OXA/% ([3]; Day 5) [%]	Content of OXA/% ([3]; Day 10) [%]	Content of OXA/% ([3]; Day 15) [%]	further results
OCC1OC(Oc2cc(O)cc(C=Cc3ccc(O)cc3)c2)C(O)C(O)C1O.[NH2][Pt]1([NH2])[O]C(=O)C2(CCC2)C(=O)[O]1 (centres unmarked) [CBT-PDT, carboplatin-polydatin cocrystal]	unchanged	100	100	100	99.60	99.72	99.29	unchanged													equilibrium solubility in aqueous solution compared with oxaliplatin or carboplatin, respectively ([2]; aqueous solution, versus parent platinum drug): higher; equilibrium solubility in water (25° C.) [2]: 16.2 mg/mL; Content of CBT/% ([3]; Day 0): 100%; Content of CBT/% ([3]; Day 1): 100%; Content of CBT/% ([3]; Day 3): 99.27%; Content of CBT/% ([3]; Day 5): 99.08%; Content of CBT/% ([3]; Day 10): 99.69%; Content of CBT/% ([3]; Day 15): 99.83%
N.N.O=C([O-])C1(C(=O)[O-])CCC1.[Pt+2] [CBT, carboplatin, reference compound]	unchanged	100	99.37	99.84	99.31	98.29	98.82	unchanged													equilibrium solubility in water (25° C.) [2]: 12.7 mg/mL; Content of CBT/% ([3]; Day 0): 100%; Content of CBT/% ([3]; Day 1): 99.76%; Content of CBT/% ([3]; Day 3): 99.29%; Content of CBT/% ([3]; Day 5): 99.16%; Content of CBT/% ([3]; Day 10): 99.27%; Content of CBT/% ([3]; Day 15): 99.82%
O=C(O)C1(C(=O)O)CCC1.O=C1[O][Pt]2([NH]C3CCCCC3[NH]2)[O]C1=O (centres unmarked) [OXA-CBDA, oxaliplatin-1,1-cyclobutane dicarboxylic acid cocrystal]									100	100	100	99.56	99.97	99.30	100	100	99.98	99.12	99.45	99.57	
O=C1[O][Pt]2([NH]C3CCCCC3[NH]2)[O]C1=O.OCC1OC(Oc2cc(O)cc(C=Cc3ccc(O)cc3)c2)C(O)C(O)C1O (centres unmarked) [OXA-PDT, oxaliplatin-polydatin cocrystal]	unchanged							unchanged	100	100	99.97	99.88	99.44	99.91	100	100	100	99.73	99.63	99.87	
O=C1[O][Pt]2([NH][C@@H]3CCCC[C@H]3[NH]2)[O]C1=O [OXA, oxaliplatin, reference compound]	unchanged							unchanged	100	98.87	99.32	96.89	99.45	98.01	100	98.36	99.33	99.18	99.09	98.21	IC50, proliferation of MH7A [4, 6]: 8.91 µg/mL; proliferation of MH7A cells inhibited ([4]; FIG. 7): 99%; IC50, proliferation of HFLS-RA [5, 6]: 4.56 µg/mL; proliferation of HFLS-RA cells inhibited ([5]; FIG. 6): 99%
CCN(CC)CCCC(C)Nc1ccnc2cc(Cl)ccc12.O=C1[O][Pt]2([NH]C3CCCCC3[NH]2)[O]C1=O (centres unmarked) [OXA-U72, oxaliplatin-chloroquine cocrystal]								unchanged	100	100	99.21	99.64	99.33	99.64	100	100	99.38	99.46	99.33	99.46	
CCN(CC)CCCC(C)Nc1ccnc2cc(Cl)ccc12.[NH2][Pt]1([NH2])[O]C(=O)C2(CCC2)C(=O)[O]1 (centres unmarked) [CBT-U72, carboplatin-chloroquine cocrystal]		100	100	99.20	99.24	99.57	99.92	unchanged													Content of CBT/% ([3]; Day 0): 100%; Content of CBT/% ([3]; Day 1): 100%; Content of CBT/% ([3]; Day 3): 99.66%; Content of CBT/% ([3]; Day 5): 99.84%; Content of CBT/% ([3]; Day 10): 99.67%; Content of CBT/% ([3]; Day 15): 99.97%
